Patent publication US10899738B2 (THE REGENTS OF THE UNIVERSITY OF MICHIGAN, priority 2016, dated 2021)
pIC50: −log10 of the molar value.

target: menin protein (Homo sapiens (Human), UniProt O00255); assay: biochemical; assay type: binding; conditions: FP competitive binding; menin protein 4 nM, FAM-MM2 probe 2 nM
Procedure, shortened: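 Test compounds displaced FAM-MM2 (2 nM) from 4 nM menin after 30 min equilibration at room temperature in PBS buffer containing bovine γ-globulin, 4% DMSO and Triton X-100. Binding was followed by fluorescence polarization. Competition curves were fitted by nonlinear regression to give IC50 and Ki.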

Chain of menin protein (O00255 whole entry): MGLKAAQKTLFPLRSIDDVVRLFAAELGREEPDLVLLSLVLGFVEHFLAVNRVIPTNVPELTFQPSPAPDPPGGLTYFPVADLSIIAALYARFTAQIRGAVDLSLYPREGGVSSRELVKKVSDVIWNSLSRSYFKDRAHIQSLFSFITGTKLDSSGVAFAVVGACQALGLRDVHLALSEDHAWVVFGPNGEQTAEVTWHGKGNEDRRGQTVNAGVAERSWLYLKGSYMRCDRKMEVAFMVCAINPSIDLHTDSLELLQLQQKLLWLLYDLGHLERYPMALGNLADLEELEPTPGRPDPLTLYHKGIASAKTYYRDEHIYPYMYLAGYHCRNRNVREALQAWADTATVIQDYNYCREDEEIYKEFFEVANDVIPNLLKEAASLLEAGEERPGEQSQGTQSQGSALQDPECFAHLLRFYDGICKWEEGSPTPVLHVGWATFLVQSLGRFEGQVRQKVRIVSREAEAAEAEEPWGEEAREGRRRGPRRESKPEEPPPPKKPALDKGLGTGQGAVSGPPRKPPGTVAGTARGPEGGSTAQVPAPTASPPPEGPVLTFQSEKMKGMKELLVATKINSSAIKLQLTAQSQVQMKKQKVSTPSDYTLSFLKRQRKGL

With `N#Cc1ccc(OCCCNc2ccc(C(O)(c3ccccc3)C3CCCC3)cn2)cc1` (stereo not drawn) [compound 125, 4-(3-((5-(cyclopentyl(hydroxy)(phenyl)methyl)pyridin-2-yl)amino)propoxy)benzonitrile] as the compound, how does the “Menin Binding Affinity IC50 (μM)” value read?
Its value is “No inhibition”.

How did the “Menin Binding Affinity IC50 (μM)” value turn out when `C[C@H](NC(=O)O[C@@H]1CCC[C@H]1[C@@](C#N)(c1ccccc1)C1CCN(CC2CN(c3ccc(S(=O)(=O)c4ccncc4)cc3)C2)CC1)c1ccccc1` [compound 218, (1R,2S)-2-((R)-cyano(phenyl)(1-((1-(4-(pyridin-4-ylsulfonyl)phenyl)azetidin-3-yl)methyl)piperidin-4-yl)methyl)cyclopentyl ((S)-1-phenylethyl)carbamate] was run?
Its value is “No inhibition”.

same assay, conditions: FP competitive binding; menin protein 4 nM, FAM-MM2 probe 2 nM; read-out: Menin Binding Affinity IC50

`N#CC(c1ccccc1)(C1CCN(CC2CN(c3ccc(S(=O)(=O)c4ccncc4)cc3)C2)CC1)[C@@H]1CCC[C@H]1OC(=O)C1CCC1` (mixture of isomers) [compound 208, rac-(1R,2S)-2-(cyano(phenyl)(1-((1-(4-(pyridin-4-ylsulfonyl)phenyl)azetidin-3-yl)methyl)piperidin-4-yl)methyl)cyclopentyl cyclobutanecarboxylate] was tested. Which pIC50 did it give?
The pIC50 was 6.36.

With `CS(=O)(=O)c1ccc(N2CC(CN3CCC(C4(C5CCCC5)C(=O)N(Cc5ccccc5)Cc5ccccc54)CC3)C2)cc1` (stereo not drawn) [compound 25, 2-benzyl-4-cyclopentyl-4-(1-((1-(4-(methylsulfonyl)phenyl)azetidin-3-yl)methyl)piperidin-4-yl)-1,4-dihydroisoquinolin-3(2H)-one] as the compound, how does the pIC50 read?
Its pIC50 is 5.57.

How did the pIC50 turn out when `CC(=O)O[C@@H]1CCC[C@H]1C(C#N)(c1cccc(C(F)(F)F)c1)C1CCN(CC2CN(c3ccc(C#N)cc3)C2)CC1` (mixture of isomers) [compound 418, rac-(1R,2S)-2-(cyano(1-((1-(4-cyanophenyl)azetidin-3-yl)methyl)piperidin-4-yl)(3-(trifluoromethyl)phenyl)methyl)cyclopentyl acetate] was run?
Its pIC50 is 3.03.

How did the pIC50 turn out when `CC(C)C(=O)O[C@H]1CCC[C@@H]1C(C#N)(c1ccccc1)C1CCN(CC2CN(c3ccc(S(=O)(=O)c4ccncc4)cc3)C2)CC1` (mixture of isomers) [compound 193, rac-(1S,2R)-2-(cyano(phenyl)(1-((1-(4-(pyridin-4-ylsulfonyl)phenyl)azetidin-3-yl)methyl)piperidin-4-yl)methyl)cyclopentyl isobutyrate] was run?
The pIC50 was 6.63.

How did the pIC50 turn out when `CC(=O)O[C@H]1CCC[C@@H]1C(C#N)(c1cccc(F)c1)C1CCN(CC2CN(c3ccc(S(=O)(=O)c4ccccc4)cc3)C2)CC1` (mixture of isomers) [compound 312, rac-(1S,2R)-2-(cyano(3-fluorophenyl)(1-((1-(4-(phenylsulfonyl)phenyl)azetidin-3-yl)methyl)piperidin-4-yl)methyl)cyclopentyl acetate] was run?
The pIC50 was 7.89.

`CSC[C@H]1CCC[C@@H]1C(C#N)(c1ccccc1)C1CCN(CC2CN(c3ccc(S(=O)(=O)c4ccncc4)cc3)C2)CC1` (mixture of isomers) [compound 259, rac-2-((1S,2S)-2-((methylthio)methyl)cyclopentyl)-2-phenyl-2-(1-((1-(4-(pyridin-4-ylsulfonyl)phenyl)azetidin-3-yl)methyl)piperidin-4-yl)acetonitrile] was tested. Which pIC50 did it give?
Its pIC50 is 4.99.

`N#Cc1ccc(OCCCN2CCC(C3(C4CCCC4)C(=O)NCc4ccccc43)CC2)cc1` (stereo not drawn) [compound 24, 4-(3-(4-(4-cyclopentyl-3-oxo-1,2,3,4-tetrahydroisoquinolin-4-yl)piperidin-1-yl)propoxy)benzonitrile] was tested. Which pIC50 did it give?
Its pIC50 is 6.38.

With `CC(=O)OC[C@H]1CCC[C@@H]1C(C#N)(c1ccccc1)C1CCN(CC2CN(c3ccc(S(=O)(=O)C4CC4)cc3)C2)CC1` (mixture of isomers) [compound 261, rac-((1S,2S)-2-(cyano(1-((1-(4-(cyclopropylsulfonyl)phenyl)azetidin-3-yl)methyl)piperidin-4-yl)(phenyl)methyl)cyclopentyl) methyl acetate] as the compound, how does the pIC50 read?
The pIC50 was 5.03.

How did the pIC50 turn out when `O=S(=O)(c1ccc(N2CC(CN3CCC(C4(C5CCCC5)COCc5ccccc54)CC3)C2)cc1)C1CC1` (stereo not drawn) [compound 38, 4-(4-cyclopentylisochroman-4-yl)-1-((1-(4-(cyclopropylsulfonyl)phenyl)azetidin-3-yl)methyl)piperidine] was run?
The pIC50 was 6.52.

`CN1CCC(C2(C3CCCC3)NCCc3ccccc32)CC1` (stereo not drawn) [compound 75, 1-cyclopentyl-1-(1-methylpiperidin-4-yl)-1,2,3,4-tetrahydroisoquinoline] was tested. Which pIC50 did it give?
The pIC50 was 3.85.

How did the pIC50 turn out when `CNC(=O)O[C@@H]1CCC[C@H]1C(C#N)(c1ccccc1)C1CCN(CC2(C)CN(c3ccc(S(=O)(=O)c4cnn(C)c4)cc3)C2)CC1` (mixture of isomers) [compound 371, rac-(1R,2S)-2-(cyano(1-((3-methyl-1-(4-((1-methyl-1H-pyrazol-4-yl)sulfonyl)phenyl)azetidin-3-yl)methyl)piperidin-4-yl)(phenyl)methyl)cyclopentyl methylcarbamate] was run?
The pIC50 was 5.68.

How did the pIC50 turn out when `CC(=O)N1CCCCC1C1(C2CCN(CCCOc3ccc(C#N)cc3)CC2)CN(C)Cc2ccccc21` (stereo not drawn) [compound 297, 4-(3-(4-(4-(1-acetylpiperidin-2-yl)-2-methyl-1,2,3,4-tetrahydroisoquinolin-4-yl)piperidin-1-yl)propoxy)benzonitrile] was run?
The pIC50 was 5.68.

With `CS(=O)(=O)c1ccc(N2CC(CN3CCC(C(C#N)(c4ccccc4)[C@H]4CCC[C@H]4S(C)(=O)=O)CC3)C2)cc1` (mixture of isomers) [compound 182, rac-2-((1R,2R)-2-(methylsulfonyl)cyclopentyl)-2-(1-((1-(4-(methylsulfonyl)phenyl)azetidin-3-yl)methyl)piperidin-4-yl)-2-phenylacetonitrile] as the compound, how does the pIC50 read?
The pIC50 was 4.63.

With `O=S(=O)(c1ccncc1)c1ccc(N2CC(CN3CCC(C4(C5CCCC5)CN(CC5COC5)Cc5ccccc54)CC3)C2)cc1` (stereo not drawn) [compound 52, 4-cyclopentyl-2-(oxetan-3-ylmethyl)-4-(1-((1-(4-(pyridin-4-ylsulfonyl)phenyl)azetidin-3-yl)methyl)piperidin-4-yl)-1,2,3,4-tetrahydroisoquinoline] as the compound, how does the pIC50 read?
The pIC50 was 7.60.

With `N#Cc1ccc(OCCCN2CCC(C3(C4CCCCC4)NCCc4ccccc43)CC2)cc1` (stereo not drawn) [compound 298, 4-(3-(4-(1-cyclohexyl-1,2,3,4-tetrahydroisoquinolin-1-yl)piperidin-1-yl)propoxy)benzonitrile] as the compound, how does the pIC50 read?
The pIC50 was 6.52.

How did the pIC50 turn out when `COC(=O)N[C@@H]1CCC[C@H]1C(C#N)(c1ccccc1)C1CCN(CC2CN(c3ccc(S(=O)(=O)c4cnn(C)c4)cc3)C2)CC1` (mixture of isomers) [Cpd. No. 350, methyl (rac-(1R,2S)-2-(cyano(1-((1-(4-((1-methyl-1H-pyrazol-4-yl)sulfonyl)phenyl)azetidin-3-yl)methyl)piperidin-4-yl)(phenyl)methyl)cyclopentyl)carbamate] was run?
The pIC50 was 5.92.

With `CN1CCc2ccccc2C1(C1CCCC1)C1CN(CCCCCOc2ccc(C#N)cc2)C1` (stereo not drawn) [compound 63, 4-((5-(3-(1-cyclopentyl-2-methyl-1,2,3,4-tetrahydroisoquinolin-1-yl)azetidin-1-yl)pentyl)oxy)benzonitrile] as the compound, how does the pIC50 read?
The pIC50 was 5.22.

With `CNC(=O)O[C@@H]1CCC[C@H]1C(C#N)(c1ccccc1)C1CCN(CC2CN(c3ccc(S(=O)(=O)c4cnn(C)c4)cc3)C2)CC1` (mixture of isomers) [compound 241, rac-(1R,2S)-2-(cyano(1-((1-(4-((1-methyl-1H-pyrazol-4-yl)sulfonyl)phenyl)azetidin-3-yl)methyl)piperidin-4-yl)(phenyl)methyl)cyclopentyl methylcarbamate] as the compound, how does the pIC50 read?
Its pIC50 is 6.07.

`CNC(=O)N[C@H]1CCC[C@@H]1C(CNC(=O)c1cocn1)(c1ccccc1)C1CCN(CC2CN(c3ccc(C#N)cc3)C2)CC1` (mixture of isomers) [compound 378, rac-N-(2-(1-((1-(4-cyanophenyl)azetidin-3-yl)methyl)piperidin-4-yl)-2-((1R,2S)-2-(3-methylureido)cyclopentyl)-2-phenylethyl)oxazole-4-carboxamide] was tested. Which pIC50 did it give?
The pIC50 was 7.49.

With `CC(=O)O[C@@H]1CCC[C@H]1C1(C2CCN(CC3CN(c4ccc(S(=O)(=O)C5CC5)cc4)C3)CC2)CN(C)Cc2ccccc21` (mixture of isomers) [compound 204, rac-(1R,2S)-2-(4-(1-((1-(4-(cyclopropylsulfonyl)phenyl)azetidin-3-yl)methyl)piperidin-4-yl)-2-methyl-1,2,3,4-tetrahydroisoquinolin-4-yl)cyclopentyl acetate] as the compound, how does the pIC50 read?
Its pIC50 is 6.91.

`CN(C)C(=O)N[C@@H]1CCC[C@H]1C(C#N)(c1ccccc1)C1CCN(CC2CN(c3ccc(S(=O)(=O)c4ccncc4)cc3)C2)CC1` (mixture of isomers) [compound 276, rac-3-((1R,2S)-2-(cyano(phenyl)(1-((1-(4-(pyridin-4-ylsulfonyl)phenyl)azetidin-3-yl)methyl)piperidin-4-yl)methyl)cyclopentyl)-1,1-dimethylurea] was tested. Which pIC50 did it give?
Its pIC50 is 5.92.

`CC(=O)O[C@H]1CCC[C@@H]1C(C#N)(c1ccccc1F)C1CCN(CCCOc2ccc(C#N)cc2)CC1` (mixture of isomers) [compound 308, rac-(1S,2R)-2-(cyano(1-(3-(4-cyanophenoxy)propyl)piperidin-4-yl)(2-fluorophenyl)methyl)cyclopentyl acetate] was tested. Which pIC50 did it give?
Its pIC50 is 7.18.

How did the pIC50 turn out when `N#Cc1ccc(OCCCN2CCC(C3(C4CCCC4)CNC(=O)c4ccccc43)CC2)cc1` (stereo not drawn) [compound 21, 4-(3-(4-(4-cyclopentyl-1-oxo-1,2,3,4-tetrahydroisoquinolin-4-yl)piperidin-1-yl)propoxy)benzonitrile] was run?
Its pIC50 is 5.96.

With `CO[C@@H]1CCC[C@H]1C(C#N)(c1ccccc1)C1CCN(CC2CN(c3ccc(S(C)(=O)=O)cc3)C2)CC1` (mixture of isomers) [compound 180, rac-2-((1S,2R)-2-methoxycyclopentyl)-2-(1-((1-(4-(methylsulfonyl)phenyl)azetidin-3-yl)methyl)piperidin-4-yl)-2-phenylacetonitrile] as the compound, how does the pIC50 read?
The pIC50 was 5.01.

`N#Cc1ccc(OCCCN2CCC(C(C#N)(CC(=O)N3CCCC3)c3ccccc3)CC2)cc1` (stereo not drawn) [compound 306, 4-(3-(4-(1-cyano-3-oxo-1-phenyl-3-(pyrrolidin-1-yl)propyl)piperidin-1-yl)propoxy)benzonitrile] was tested. Which pIC50 did it give?
Its pIC50 is 4.40.
